Test results as given in patent US4256761A, “Antihypertensive amides” (USV Pharmaceutical Corporation, priority 1979, dated 1981).

Assays:
[1] = test system: angiotensin I-induced hypertensive rats; experiment: oral antihypertensive activity in angiotensin I-induced hypertensive rats; assay type: in vivo; details: Rattus norvegicus, dose for 50% reduction in angiotensin I-induced hypertension, read-out: I50 (ID50, antihypertensive activity)
[2] = target: T1, angiotensin converting enzyme (Oryctolagus cuniculus, UniProt P12822); experiment: angiotensin converting enzyme inhibition (ACEI activity), method of Science 196, 441-4 (1977); assay type: biochemical; details: amount required for 50% inhibitive effect, read-out: I50 (ACEI activity)
T1 sequence (P12822 34-1310): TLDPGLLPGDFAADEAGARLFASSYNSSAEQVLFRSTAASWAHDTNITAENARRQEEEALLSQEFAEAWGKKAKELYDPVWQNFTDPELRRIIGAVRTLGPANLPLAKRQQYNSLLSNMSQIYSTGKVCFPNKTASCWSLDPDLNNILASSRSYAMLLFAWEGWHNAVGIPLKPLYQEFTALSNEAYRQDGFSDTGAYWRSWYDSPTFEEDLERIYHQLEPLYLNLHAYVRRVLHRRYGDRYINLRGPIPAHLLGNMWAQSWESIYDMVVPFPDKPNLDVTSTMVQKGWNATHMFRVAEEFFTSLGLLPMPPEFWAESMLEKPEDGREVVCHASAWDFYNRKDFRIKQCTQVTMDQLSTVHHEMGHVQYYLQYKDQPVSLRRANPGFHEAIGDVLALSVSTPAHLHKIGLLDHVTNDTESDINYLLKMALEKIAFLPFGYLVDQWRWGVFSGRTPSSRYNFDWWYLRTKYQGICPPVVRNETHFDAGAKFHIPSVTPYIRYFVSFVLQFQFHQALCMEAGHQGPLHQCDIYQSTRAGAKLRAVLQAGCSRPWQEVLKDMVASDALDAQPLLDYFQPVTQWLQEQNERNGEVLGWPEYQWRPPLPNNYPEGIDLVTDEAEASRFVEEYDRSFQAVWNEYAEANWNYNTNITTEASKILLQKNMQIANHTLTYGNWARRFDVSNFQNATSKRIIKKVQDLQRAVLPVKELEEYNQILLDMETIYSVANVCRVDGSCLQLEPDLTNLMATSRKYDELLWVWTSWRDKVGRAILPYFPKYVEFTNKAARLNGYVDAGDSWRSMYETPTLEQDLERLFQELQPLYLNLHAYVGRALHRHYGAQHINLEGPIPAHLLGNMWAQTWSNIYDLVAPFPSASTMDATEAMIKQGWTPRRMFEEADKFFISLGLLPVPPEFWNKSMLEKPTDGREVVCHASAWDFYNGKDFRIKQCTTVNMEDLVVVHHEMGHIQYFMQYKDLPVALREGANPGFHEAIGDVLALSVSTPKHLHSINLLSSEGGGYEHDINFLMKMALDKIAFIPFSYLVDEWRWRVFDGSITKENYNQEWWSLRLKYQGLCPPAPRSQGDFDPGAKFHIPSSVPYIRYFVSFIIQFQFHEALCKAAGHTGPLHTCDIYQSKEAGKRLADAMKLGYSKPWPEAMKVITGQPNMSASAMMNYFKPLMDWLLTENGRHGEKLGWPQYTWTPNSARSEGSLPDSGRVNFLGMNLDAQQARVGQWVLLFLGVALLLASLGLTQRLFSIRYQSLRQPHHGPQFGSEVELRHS
From the text: The I50 value represents the amount in micromols required to give an inhibitive effect of 50% in the tests using the procedure described in the Science article.

SMILES | ED50 [1] [mg/kg] | IC50 [2] [nM]
CC(CS)C(=O)N(CC(=O)O)C1CCC1 (centres unmarked) [Cylcobutyl H, N-(3-Mercapto-2-methylpropanoyl)-N-cyclobutylglycine] | 0.21 | 
CC(CS)C(=O)N(CC(=O)O)[C@@H]1C[C@H]2CC[C@@H]1C2 (stereo partly drawn) [exo-Norbornyl H, N-(3-Mercapto-2-methylpropanoyl)-N-(exo-norbornyl)glycine] | 0.11 | 25
CC(=O)SCC(C)C(=O)N(CC(=O)O)[C@@H]1C[C@H]2CC[C@@H]1C2 (stereo partly drawn) [exo-Norbornyl CH3 CO, N-(3-Acetylthio-2-methylpropanoyl)-N-(exo-norbornyl)glycine] | 0.06 | 22
CC(=O)SCC(C)C(=O)N(CC(=O)O)C1CCCC1 (centres unmarked) [Cyclopentyl CH3 CO, N-(3-Acetylthio-2-methylpropanoyl)-N-cyclopentylglycine] | 0.16 | 44
CC(=O)SCC(C)C(=O)N(CC(=O)O)C1CCCCCC1 (centres unmarked) [Cycloheptyl CH3 CO, N-(3-Acetylthio-2-methylpropanoyl)-N-cycloheptylglycine] |  | 88
COCCN(CC(=O)O)C(=O)C(C)CS (centres unmarked) [H3 CO(CH2)2 H] |  | 95
CC(=O)SCC(C)C(=O)N(CC(=O)O)c1ccccc1 (centres unmarked) [Phenyl CH3 CO, N-(3-Acetylthio-2-methylpropanoyl)-N-phenylglycine] | 0.23 | 
CC(CS)C(=O)N(CC(=O)O)C1CC1 (centres unmarked) [Cyclopropyl H, N-(3-Mercapto-2-methylpropanoyl)-N-cyclopropylglycine] | 0.14 | 27
CC(CS)C(=O)N(CC(=O)O)C1CCCC1 (centres unmarked) [Cyclopentyl H, N-(3-Mercapto-2-methylpropanoyl)-N-cyclopentylglycine] | 0.15 | 
CC(=O)SCC(C)C(=O)N(CC(=O)O)C1CC1 (centres unmarked) [Cyclopropyl CH3 CO, N-(3-Acetylthio-2-methylpropanoyl)-N-(cyclopropyl)glycine] | 0.13 | 
CC(CS)C(=O)N(CC(=O)O)C1CCCCCC1 (centres unmarked) [Cycloheptyl H, N-(3-Mercapto-2-methylpropanoyl)-N-cycloheptylglycine] | 0.021 | 
CSCCCN(CC(=O)O)C(=O)C(C)CS (centres unmarked) [H3 CS(CH2)3 H, N-(3-Mercapto-2-methylpropanoyl)-N-(3-methylthiopropyl)glycine] |  | 55
CC(CS)C(=O)N(CC(=O)O)C1Cc2ccccc2C1 (centres unmarked) [2-Indanyl H, N-(3-Mercapto-2-methylpropanoyl)-N-(indan-2-yl)glycine] | 0.16 | 
